Experiment: Brain tissue concentration of administered d5OT by LC-MS/MS (terminal experiment)
Format: in vivo, rhesus macaques (Macaca mulatta)
Set-up: key to BRAIN d5OT concentration: ND: not detected; +: detected but not quantifiable
Conditions: for tissue level at time at 148 min: female
Protocol: Monkeys were divided into three groups, each with two monkeys; each group received the following in a terminal study at the 5th week: Group 1 (Monkeys ID# 1 and ID# 5) received 40 IU of d5OT IN, Group 2 received 80 IU of d5OT IN (Monkeys ID# 2 and ID# 4) and Group 3 received 80 IU of d5OT IV (Monkeys ID# 3 and ID# 6). Animals were perfused on average, 140 ± 7 (mean ± SD) min after d5OT administration (range = 135–149 min) (Table 4). Plasma and CSF were drawn just before administration of d5OT, at the midpoint between d5OT administration and perfusion (~60 min post-d5OT administration), and just before perfusion.
Brain tissue distribution of d5OT, as well as the endogenous concentrations of OT (d0OT), were measured in the following 12 brain regions: cerebellum, brainstem, striatum, amygdala, thalamus, visual cortex, insular cortex, hypothalamus, hippocampus, mPFC (Brodmann areas 32,25,24), dPFC (Brodmann areas 46,9,10), and OFC (Brodmann areas 14,13,12) (Tables 1, 2 and 3).
Brain tissue sample preparation: Samples (~1.5 mg per sample) were individually weighed and placed into 12 mm × 75 mm glass tubes containing 1.5 ml ice-cold 1 M acetic acid and 30 µl of OT-d10 internal standard. Tissues were homogenized on ice and the resulting homogenates were poured into individual 15 ml polystyrene tubes. The original glass tube was rinsed with 1 ml acetonitrile, and this rinse was added to the appropriate 15 ml polystyrene tube containing the homogenate. After all homogenizations were complete, 3 ml acetonitrile was added to each tube and extraction proceeded, as described for the plasma and CSF samples.
LC–MS/MS instrument parameters: Microtiter plates were prepared, as described above, and loaded onto a SIL-30ACMP autosampler set at 4 °C (Shimadzu). Forty microliters of each standard, QC or sample were injected onto an ACE Excel 2 C18-PFP 50 mm × 2.1 mm column (Advanced Chromatography Technologies, LTD, Aberdeen, Scotland) at 50 °C using reversed-phase chromatography. Mobile phase A was 0.1% formic acid in water and mobile phase B was 0.1% formic acid in ACN. The LC time gradient was created using two Nexera LC-30AD pumps (Shimadzu) running at 0.5 ml/min. Chromatography for serum and CSF samples began at 10% B and ended at 16% B at 3.6 min. One minute at 60% B was then required to wash the column, and the pumps re-equilibrated at 10% B for an additional 1.7 min (total run time ~6 min). Outside of the 1.55–3.55 min window during which OT eluted, a divert valve sent the LC effluent to waste.
Heated electrospray […] in positive mode, with scheduled multiple reaction monitoring (MRM) on a Shimadzu LCMS-8050, was used for detection of OT. The interface temperature was 270 °C and heat block temperature was 170 °C. Gas was supplied by a Peak Genius 1051 nitrogen and air generator (Peak Scientific, Inchinnan, UK). Nitrogen gas was used for nebulizing (1 L/min) and drying (8.2 L/min), while air was used for heating (7.8 L/min). A capillary B needle was used in the interface. Needle protrusion was set to 1.25 mm and probe distance was set to 1.0 mm; both were determined empirically. Argon (Airgas, Radnor, PA) was used for the collision-induced dissociation at 330 kPa. The MS/MS conditions for OT were optimized using the automated MRM optimization procedure in LabSolutions software (Shimadzu). We collected two MRM transitions each, for d0OT (1007.40 > 723.40 and 1007.40 > 285.30), d5OT (1012.00 > 723.40 and 1012.00 > 290.35), and d10OT (1017.70 > 723.35 and 1017.70 > 295.40); the first transition listed in each case was used for quantitation, while the second was used as a reference ion. Retention times for d0OT, d5OT, and d10OT were 3.290, 3.270, and 3.253 min, respectively.
The sensitivities of each assay within the method were determined by the lowest and highest concentration calibrators in the calibration curve. The lower limit of quantitation (LLOQ) for d0OT was 10 pg/ml (4 pg/col); the LLOQ for d5OT was 100 pg/ml (40 pg/col). […]

## CC[C@H](C)[C@@H]1NC(=O)[C@H](Cc2ccc(O)cc2)NC(=O)[C@@H](N)CSSC[C@@H](C(=O)N2CCC[C@H]2C(=O)N[C@@H](CC(C)C)C(=O)NCC(N)=O)NC(=O)[C@H](CC(N)=O)NC(=O)[C@H](CCC(N)=O)NC1=O [d5OT]
40 IU IN, assuming ~20% of delivered volume reaches upper nasal cavity
  Brain penetrance of d5OT in the striatum, % of the dose delivered IN: ~0.03%
Amygdala, 40 IU IN, monkey #5 (F), perfused 138 min post-dose, LC-MS/MS
  BRAIN d5OT concentration: +
Brainstem, 40 IU IN, monkey #1 (F), perfused 148 min post-dose, LC-MS/MS
  BRAIN d5OT concentration: +
Brainstem, 80 IU IN, monkey #2 (M), 136 min post-dose, molarity calculated for extracellular fluid volume (20% of brain volume)
  BRAIN d5OT concentration: < 1 nM
Brainstem, 80 IU IN, monkey #2 (M), perfused 136 min post-dose, LC-MS/MS
  BRAIN d5OT concentration: 0.14 pg/mg
Brainstem, 80 IU IN, monkey #4 (M), 135 min post-dose, molarity calculated for extracellular fluid volume (20% of brain volume)
  BRAIN d5OT concentration: 1 nM
Brainstem, 80 IU IV, monkey #6 (F), perfused 135 min post-dose, LC-MS/MS
  BRAIN d5OT concentration: +
Cerebellum, 80 IU IN, monkey #4 (M), perfused 135 min post-dose, LC-MS/MS
  BRAIN d5OT concentration: +
OFC, 80 IU IN, monkey #2 (M), 136 min post-dose, molarity calculated for extracellular fluid volume (20% of brain volume)
  BRAIN d5OT concentration: 11 nM
Striatum, 40 IU IN, monkey #1 (F), 148 min post-dose, molarity calculated for extracellular fluid volume (20% of brain volume)
  BRAIN d5OT concentration: 13 nM
Striatum, 40 IU IN, monkey #5 (F), perfused 138 min post-dose, LC-MS/MS
  BRAIN d5OT concentration: +
Thalamus, 40 IU IN, monkey #1 (F), 148 min post-dose, molarity calculated for extracellular fluid volume (20% of brain volume)
  BRAIN d5OT concentration: 1 nM
After IN d5OT, Table 1
  d5OT concentration in striatum (highest), comparable to that in the OFC: ~ 10 nM
dPFC, 40 IU IN, monkey #5 (F), perfused 138 min post-dose, LC-MS/MS
  BRAIN d5OT concentration: +
dPFC, 80 IU IN, monkey #4 (M), perfused 135 min post-dose, LC-MS/MS
  BRAIN d5OT concentration: +
dPFC, 80 IU IV, monkey #6 (F), perfused 135 min post-dose, LC-MS/MS
  BRAIN d5OT concentration: +
Rhesus monkey, brain (striatum), Striatum, 40 IU IN, monkey #1 (F), perfused 148 min post-dose, LC-MS/MS
  tissue level at time at 148 min: 2.41 ng/g
Rhesus monkey, brain (thalamus), Thalamus, 40 IU IN, monkey #1 (F), perfused 148 min post-dose, LC-MS/MS
  tissue level at time at 148 min: 0.23 ng/g
mPFC, 80 IU IV, monkey #6 (F), perfused 135 min post-dose, LC-MS/MS
  BRAIN d5OT concentration: +
male, rhesus monkey, brain (OFC), OFC, 80 IU IN, monkey #2 (M), perfused 136 min post-dose, LC-MS/MS
  tissue level at time at 136 min: 2.04 ng/g
male, rhesus monkey, brain (brainstem), Brainstem, 80 IU IN, monkey #4 (M), perfused 135 min post-dose, LC-MS/MS
  tissue level at time at 2.25 h: 0.24 ng/g
On the order of, Table 1
  Brain concentrations of d5OT after IN delivery: ≥ 1 nM

Reference: PMC7270110, “Labeled oxytocin administered via the intranasal route reaches the brain in rhesus macaques” (Nature Communications, 2020)
